pIC50: −log10 of the molar value. Counter-ions that a name gives are not always drawn.
Each molecule was assayed on Primary human T-cells (assay: Primary Human T-Cell Proliferation Assay Stimulated with IL-2 (CellTiter-Glo)). Details: primary human T-cell proliferation stimulated with IL-2; Hydrochloride Salt; read-out: IC50, Example 42.
Assay type: cell-based
How it was run: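 Peripheral blood T-cells pre-activated with anti-CD3/anti-CD28 and IL-2 were washed free of IL-2, then cultured with compound plus IL-2 for 72 hours at 37° C, duplicate wells. Viability read as ATP by CellTiter-Glo luminescence; IC50 reported.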
Work on `NS(=O)(=O)c1cccc(Nc2ncc(F)c(Nc3ccc(OCc4ccccn4)cc3)n2)c1` [Compound I-196, N2-(3-Aminosulfonylphenyl)-5-fluoro-N4-4-[(2-pyridinyl)methyleneoxyphenyl]-2,4-pyrimidinediamine Hydrochloride Salt] yielded a pIC50 of 6.86.

Same assay, conditions: primary human T-cell proliferation stimulated with IL-2; dihydrochloride; read-out: IC50, Example 42
In the case of `CNS(=O)(=O)c1cc(Nc2ncc(F)c(Nc3ccc(Cn4ccnc4)cc3)n2)ccc1C` [III-86, 5-Fluoro-N2-[3-(N-methylaminosulfony)-4-methylphenyl]-N4-[4-(1-imidazolylmethyl)phenyl]-2,4-pyrimidinediamine dihydrochloride], the pIC50 was 7.03.

Same assay, conditions: primary human T-cell proliferation stimulated with IL-2; hydrochloride; read-out: IC50, Example 42
Molecule `CNS(=O)(=O)c1cc(Nc2ncc(F)c(Nc3ccc(Cn4ccnc4)cc3)n2)ccc1C` [III-85, 5-Fluoro-N2-[3-(N-methylaminosulfony)-4-methylphenyl]-N4-[4-(1-imidazolylmethyl)phenyl]-2,4-pyrimidinediamine hydrochloride] has a pIC50 of 6.91.

Same assay, conditions: primary human T-cell proliferation stimulated with IL-2; read-out: IC50, Example 42
With `Cc1cc(COc2ccc(Nc3nc(Nc4ccc(C)c(S(N)(=O)=O)c4)ncc3F)cc2)n(C)n1` [Compound I-198, N2-(3-Aminosulfonyl-4-methylphenyl)-N4-[4-(1,3-dimethyl-(1H)-pyrazol-5-yl)methyleneoxyphenyl]-5-fluoro-2,4-pyrimidinediamine] the pIC50 was 6.34. With `Cc1ccc(Nc2ncc(F)c(Nc3ccc(OC(C)(C)C(N)=O)cc3)n2)cc1S(N)(=O)=O` [Compound I-127, N4-[4-(1-Aminocarbonyl-1-methyl)ethoxy]phenyl-N2-(3-aminosulfonyl-4-methyl)phenyl-5-fluoro-2,4-pyrimidinediamine] the pIC50 was 6.29. `Cc1cnc(Nc2cccc(S(N)(=O)=O)c2)nc1Nc1ccc(OCc2ccccn2)cc1` [Compound I-179, N2-(3-Aminosulfonylphenyl)-5-methyl-N4-[4-(2-pyridinyl)methyleneoxyphenyl]-2,4-pyrimidinediamine] gave a pIC50 of 7.93. Molecule `Cc1cc(COc2ccc(Nc3nc(Nc4ccc(C)c(S(N)(=O)=O)c4)ncc3F)cc2)n(Cc2ccccc2)n1` [Compound I-199, N2-(3-Aminosulfonyl-4-methylphenyl)-N4-[4-(1-benzyl-3-methyl-(1H)-pyrazol-5-yl)methyleneoxyphenyl]-5-fluoro-2,4-pyrimidinediamine] has a pIC50 of 5.52. Molecule `Cc1cc(COc2cccc(Nc3nc(Nc4ccc(C)c(S(N)(=O)=O)c4)ncc3F)c2)no1` [Compound I-214] has a pIC50 of 5.88. For `Cc1ccc(Nc2ncc(F)c(Nc3cccc(OCc4cccnc4)c3)n2)cc1S(N)(=O)=O` [Compound I-183, N2-(3-Aminosulfonyl-4-methylphenyl)-5-fluoro-N4-[3-(3-pyridinyl)methyleneoxyphenyl]-2,4-pyrimidinediamine], the pIC50 was 5.74. `CNS(=O)(=O)c1cc(Nc2ncc(F)c(Nc3cccc(OCc4cccnc4)c3)n2)ccc1C` [Compound I-184, 5-Fluoro-N2-[3-(N-methylaminosulfony)-4-methylphenyl]-5-fluoro-N4-[3-(3-pyridinyl)methyleneoxyphenyl]-2,4-pyrimidinediamine] gave a pIC50 of 5.59. In the case of `Cc1cc(Nc2nc(Nc3ccc(S(N)(=O)=O)cc3)ncc2F)ccc1OCC(N)=O` [Compound I-113, N4-(4-Aminocarbonylmethoxy-3-methyl)phenyl-N2-(4-aminosulfonyl)phenyl-5-fluoro-2,4-pyrimidinediamine], the pIC50 was 5.77. For `CCN(CC)CCNS(=O)(=O)c1ccc(Nc2ncc(F)c(Nc3cccc(OCc4cccnc4)c3)n2)cc1` [Compound I-186, N2-[4-(2-N,N-Diethylaminoethyl)aminosulfonylphenyl)-5-fluoro-N4-[3-(3-pyridinyl)methyleneoxyphenyl]-2,4-pyrimidinediamine], the pIC50 was 5.96. With `C[Si](C)(C)C#Cc1cnc(Nc2cccc(S(N)(=O)=O)c2)nc1Nc1ccc(OCC#N)cc1` [Compound I-15, N2-(3-Aminosulfonylphenyl)-N4-(4-cyanomethyleneoxyphenyl)-5-trimethylsilylacetylene-2,4-pyrimidinediamine] the pIC50 was 5.93. `Cc1cc(COc2ccc(Nc3nc(Nc4ccc(C)c(S(N)(=O)=O)c4)ncc3F)cc2)[nH]n1` [Compound I-197, N2-(3-Aminosulfonyl-4-methylphenyl)-5-fluoro-N4-[4-(3-methyl-(1H)-pyrazol-5-yl)methyleneoxyphenyl]-2,4-pyrimidinediamine] was tested, and the pIC50 was 6.48. `NS(=O)(=O)c1ccc(Nc2ncc(F)c(Nc3ccc(OCc4ccccn4)cc3)n2)cc1` [Compound I-163, N2-(4-Aminosulfonylphenyl)-5-fluoro-N4-[4-(2-pyridinyl)methyleneoxyphenyl]-2,4-pyrimidinediamine] was tested, and the pIC50 was 6.36. With `CC(C)c1ccc(Nc2ncc(F)c(Nc3ccc(OCC#N)cc3)n2)cc1S(N)(=O)=O` [Compound I-8, N2-(3-Aminosulfonyl-4-iso-propylphenyl)-N4-(4-cyanomethyleneoxyphenyl)-5-fluoro-2,4-pyrimidinediamine] the pIC50 was 6.76. With `CCN(CC)CCNS(=O)(=O)c1ccc(Nc2ncc(F)c(Nc3ccc(OCc4ccccn4)cc3)n2)cc1` [Compound I-165, N2-[4-(2-N,N-Diethylaminoethyl)aminosulfonylphenyl)-5-fluoro-N4-[4-(2-pyridinyl)methyleneoxyphenyl]-2,4-pyrimidinediamine] the pIC50 was 6.35. `Cc1ccc(Nc2ncc(F)c(Nc3ccc(OC(C)C(N)=O)cc3)n2)cc1S(N)(=O)=O` (stereo not shown) [Compound I-118, N4-[4-(1-Aminocarbonyl)ethoxy]phenyl-N2-(3-aminosulfonyl-4-methyl)phenyl-5-fluoro-2,4-pyrimidinediamine] showed a pIC50 of 6.25. `CCN(CC)CCNS(=O)(=O)c1ccc(Nc2ncc(F)c(Nc3ccc(OCc4cccnc4)cc3)n2)cc1` [Compound I-191, N2-[4-(2-N,N-Diethylaminoethyl)aminosulfonylphenyl)-5-fluoro-N4-[4-(3-pyridinyl)methyleneoxyphenyl]-2,4-pyrimidinediamine] showed a pIC50 of 6.53.

Same assay, conditions: primary human T-cells stimulated with IL-2, proliferation; read-out: IC50, Example 42
`COCCOc1ccc(Nc2nc(Nc3ccc(C)c(S(N)(=O)=O)c3)ncc2F)cc1` [VI-112, N2-(3-Aminosulfonyl-4-methylphenyl)-5-fluoro-N4-[4-(2-methoxyethyleneoxy)phenyl]-2,4-pyrimdinediamine] was tested, and the pIC50 was 6.11. With `CS(=O)(=O)N1CCc2cc(Nc3nc(Nc4ccc(S(N)(=O)=O)cc4)ncc3F)ccc21` [VII-63] the pIC50 was 6.52. In the case of `COCCOc1ccc(Nc2nc(Nc3ccc(Cl)c(S(N)(=O)=O)c3)ncc2F)cc1` [VI-111, N2-(3-Aminosulfonyl-4-chlorophenyl)-5-fluoro-N4-[4-(2-methoxyethyleneoxy)phenyl]-2,4-pyrimdinediamine], the pIC50 was 5.96. For “N4-(3-Chloro-4-cyanomethyleneoxyphenyl)-5-fluoro-N2-(5-methyl-2H-1,1-dioxide-1,2,4-benzothiadiazin-7-yl)-2,4-pyrimidinediamine [VIII-2]”, the pIC50 was 6.39. With `Cc1ccc(Nc2ncc(F)c(Nc3ccc4c(c3)CNCC4)n2)cc1S(N)(=O)=O` [VII-16, N2-(3-Aminosulfonyl-4-methylphenyl)-5-fluoro-N4-(1,2,3,4-tetrahydroisoquin-7-yl)-2,4-pyrimidinediamine] the pIC50 was 5.97. `CNC(=O)N1CCc2ccc(Nc3nc(Nc4ccc(C)c(S(N)(=O)=O)c4)ncc3F)cc2C1` [VII-17, N2-(3-Aminosulfonyl-4-methylphenyl)-5-fluoro-N4-[2-(methylaminocarbonyl)-1,2,3,4-tetrahydroisoquin-7-yl]-2,4-pyrimidinediamine] was tested, and the pIC50 was 5.68. For `Cc1ccc(Nc2ncc(F)c(Nc3ccc4c(c3)CN(C(=O)N(C)C)CC4)n2)cc1S(N)(=O)=O` [VII-18, N2-(3-Aminosulfonyl-4-methylphenyl)-5-fluoro-N4-[2-(dimethylaminocarbonyl)-1,2,3,4-tetrahydroisoquin-7-yl]-2,4-pyrimidinediamine], the pIC50 was 6.08. For “N2-(3-Aminosulphonylphenyl)-5-fluoro-N4-[4-(3-pyridinylmethyl)benzo[1,4]oxazin-7-yl]-2,4-pyrimidinediamine [VII-56]”, the pIC50 was 5.89. `Cc1ccc(Nc2ncc(F)c(Nc3ccc4c(c3)c(CC#N)cn4C)n2)cc1S(N)(=O)=O` [IX-20] was tested, and the pIC50 was 5.75. For `Cc1ccc(Nc2ncc(F)c(Nc3ccc4c(c3)CC(C(=O)N(C)C)O4)n2)cc1S(N)(=O)=O` (racemic) [VII-26, Racemic N2-(3-Aminosulfonyl-4-methylphenyl)-N4-[2-(N,N-dimethylaminocarbonyl)-2,3-dihydrobenzofuran-5-yl]-5-fluoro-2,4-pyrimidinediamine], the pIC50 was 5.92. “N2-(3-Aminosulphonylphenyl)-5-fluoro-N4-[4-(3-pyridinylmethyl)benzo[1,4]oxazin-7-yl]-2,4-pyrimidinediamine [VII-55]” was tested, and the pIC50 was 6.22. For `Cc1ccc(Nc2ncc(F)c(Nc3ccc4[nH]cc(CC#N)c4c3)n2)cc1S(=O)(=O)NC1CCN(C)CC1` [IX-19, N4-(3-cyanomethylene-1H-indol-5yl)-5-fluoro-N2-[3-(1-methyl-4-aminopiperadine)sulfonyl-4-methylphenyl]-2,4-pyrimidinediamine], the pIC50 was 5.80. For `CN(C)C(=O)C1Cc2cc(Nc3nc(Nc4ccc(Cl)c(S(N)(=O)=O)c4)ncc3F)ccc2O1` (racemic) [VII-27, Racemic N2-(3-Aminosulfonyl-4-chlorophenyl)-N4-[2-(N,N-dimethylaminocarbonyl)-2,3-dihydrobenzofuran-5-yl]-5-fluoro-2,4-pyrimidinediamine], the pIC50 was 5.69. `CCS(=O)(=O)N1CCc2cc(Nc3nc(Nc4ccc(S(N)(=O)=O)cc4)ncc3F)ccc2C1` [VII-13, N2-(4-aminosulfonyl)phenyl-N4-[(N-ethylsulfonyl)-1,2,3,4-tetrahydroisoquinolin-6-yl]-5-fluoro-2,4-pyrimidinediamine] gave a pIC50 of 6.42. With `N#CCn1ccc2cc(Nc3nc(Nc4ccc(Cl)c(S(N)(=O)=O)c4)ncc3F)ccc21` [IX-7, N2-(3-Aminosulfonyl-4-chlorophenyl)-N4-(1-cyanomethyleneindol-5-yl)-5-fluoro-2,4-pyrimidinediamine] the pIC50 was 6.12.
